Experimental data published in US12503444B2, “Compound containing benzene ring and application thereof” (WUHAN LL SCIENCE AND TECHNOLOGY DEVELOPMENT CO., LTD., priority 2019, dated 2025).
Read-outs that look alike come from different tables or passages of the source.

What was measured:
[1] = In vitro metabolic stability, liver microsome incubation (guinea pig); format: in vitro ADME; conditions: 1 mg/mL liver microsome protein, 37° C.; for half-life: guinea pig, liver microsomes, read-out: T1/2 in guinea pig liver microsome min
Description: (§1) The in vitro metabolic stability of the compounds disclosed herein was determined through incubation of liver microsomes of various species. A proper amount of test compound was added into a liver microsome reaction system (1 mg/mL liver microsome protein, 25 U/mL glucose-6 phosphate dehydrogenase, 1 mM NADP, 6 mM D-glucose 6-phosphate and 5 mM MgCl2), and then the mixture was incubated in a water bath kettle at 37° C. to start the reaction. At each time point, 100 μL of the reaction system was added into a centrifuge tube containing 400 μL of internal standard working solution (containing a 200 ng/mL solution of dexamethasone, diclofenac, tolbutamide and labetalol in acetonitrile) precooled at 0° C. so as to stop the reaction, and the mixture was then centrifuged at 10,000 g for 10 min at 4° C. The supernatant was collected for LC-MS assay so as to obtain the values of in vitro metabolic half-life of the test compounds in liver microsomes of various species.

[2] = test system: Male Dunkin Hartley guinea pigs; test: Citric acid only cough model in guinea pigs; format: in vivo; conditions: guinea pig; for Cough inhibition rate Vs vehicle (%) / Cough latency / Mean number of coughs / Cough inhibition rate Vs baseline (%): 17.5% citric acid; for Cough inhibition rate Vs baseline (%): before vs after administration
Description: Male Dunkin Hartley guinea pigs (300-350 g) were placed in an animal atomization box, and then the door of the atomization box was closed while the ultrasonic atomizer (Guangdong Yuehua) was turned on. 17.5% citric acid gas was introduced into the atomization box at a maximum atomization rate (about 2 mL/min) for 20 s, and coughs of the animals within 10 min were continuously observed from the time of the start of atomization. During the 10-min observation, coughs of the animals needed to be counted manually, and the number of coughs were judged according to cough postures of the guinea pigs, such as abdominal twitching, mouth opening, and head inclining downward abruptly. The number of coughs during the first 5 min and that during 10 min were recorded, and the cough latency of the guinea pigs, namely the time from the initiation of citric acid induction to the appearance of the 1st cough, was also recorded.
Cough inhibition rate Vs vehicle represents the percentage of reduction
[formula] in the number of coughs in the administration group compared to the vehicle group upon citric acid challenge; Cough inhibition rate Vs baseline represents the percentage of reduction
[formula] in the number of coughs in the administration group before and after administration.

[3] = In vitro metabolic stability, liver microsome incubation (rat); format: in vitro ADME; conditions: 1 mg/mL liver microsome protein, 37° C.; for half-life: rat, liver microsomes, read-out: T1/2 in rat liver microsome min
Description: as §1

[4] = In vitro cytotoxicity assay in HepG2 cells, CCK-8 method; conditions: human
Description: (§2) In vitro cytotoxicity assay for the compounds disclosed herein was performed in HepG2 cells using the CCK-8 method. HepG2 cells (Beina Bio) in the logarithmic growth phase were collected, the concentration of cell suspension was adjusted, and then the cells were plated on a 96-well cell culture plate at 50,000 cells/well. The cells were then incubated overnight in a cell incubator (5%/humidity, 37° C.), and after 80-90% cell confluence was achieved, test compounds or vehicle (DMSO) at various concentration gradients were added after medium change. The resulting mixture was incubated in the cell incubator (5% humidity, 37° C.) for 48 h. After the treatment, the medium in the plate was discarded. The plate was washed twice with PBS, added with CCK-8 working solution (Beyotime) at 100 μL per well, and then incubated at 37° C. for 1.5 h away from the light. Absorbance at OD450 nm was measured for each well on a microplate reader, and CC50 value of each compound was analyzed and calculated.

[5] = In vitro metabolic stability, liver microsome incubation (human); format: in vitro ADME; conditions: 1 mg/mL liver microsome protein, 37° C.; for half-life: human, liver microsomes, read-out: T1/2 in human liver microsome min
Description: as §1

[6] = biological target: T1, hP2X4 (human purinergic P2X receptor subtype 4) (Homo sapiens, UniProt Q99571); test: FLIPR assay of intracellular calcium increase induced by activation of hP2X4 expressed in HEK293 cells (agonist BZ-ATP 2.5 μM); format: cell-based; conditions: HEK293 cells stably expressing hP2X4, FLIPR, read-out: P2X4 IC50
T1 sequence (Q99571 1-404 isoform Q99571-2): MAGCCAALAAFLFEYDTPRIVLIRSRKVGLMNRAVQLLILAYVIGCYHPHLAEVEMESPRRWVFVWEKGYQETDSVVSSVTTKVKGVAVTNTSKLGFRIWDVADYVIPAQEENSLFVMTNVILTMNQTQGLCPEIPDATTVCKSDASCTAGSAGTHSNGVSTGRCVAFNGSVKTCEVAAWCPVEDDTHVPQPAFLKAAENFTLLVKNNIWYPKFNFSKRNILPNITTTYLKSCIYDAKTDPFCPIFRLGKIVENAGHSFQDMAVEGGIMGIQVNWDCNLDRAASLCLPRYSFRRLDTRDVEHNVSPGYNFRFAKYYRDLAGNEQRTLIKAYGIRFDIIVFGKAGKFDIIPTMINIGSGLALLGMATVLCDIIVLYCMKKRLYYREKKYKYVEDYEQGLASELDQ
How it was run: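 HEK293 cells stably expressing hP2X4, loaded with Calcium 6 dye for 1.5 h at 37° C, then preincubated with compound 30 min at room temperature.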

[7] = test system: HepG2 cells
Description: as §2

[8] = test system: HepG2 cells; test: In vitro cytotoxicity assay in HepG2 cells, CCK-8 method; conditions: read-out: HepG2 CC50, 48 h, CCK-8
Description: as §2

[9] = 20 mg/kg group, before administration (baseline)
[10] = 60 mg/kg group, before administration (baseline)

half-life [1] [h]	half-life [3] [h]	half-life [5] [h]	Compound	CC50 at 48 h [4] [nM]	IC50 ([6]; numeric values) [nM]	CC50 [7] [nM]	T1/2 in human liver microsome min [5] [h]	IC50 ([6]; class symbols) [nM]	also measured
2.58	6.03	11.5	NS(=O)(=O)c1cc(NC(=O)Cc2ccccc2Cl)cc2nn(C(F)F)cc12 [Compound 1, 2-(2-chlorophenyl)-N-(2-(difluoromethyl)-4-sulfamoyl-2H-indazol-6-yl)acetamide]	> 200000	29.1				Effect on number of coughs and cough latency (in words) ([2]; 20 mg/kg and 60 mg/kg, compared with vehicle group or before administration): reduce the number of coughs and prolong the cough latency in a dose-dependent manner; Effect on number of coughs and cough latency (in words) ([2]; 60 mg/kg, no significant difference from dextromethorphan at the same dosage): significant improvement effect; Cough inhibition rate Vs vehicle (%) ([2]; 20 mg/kg): 20.59%; Cough latency [2, 9]: 94.29 s; Mean number of coughs [2, 9]: 18.57; Cough latency ([2]; 20 mg/kg, after administration): 214.29 s; Mean number of coughs ([2]; 20 mg/kg, after administration): 15.29; Cough inhibition rate Vs baseline (%) ([2]; 20 mg/kg): 17.69%; Cough inhibition rate Vs vehicle (%) ([2]; 60 mg/kg): 46.75%; Cough latency [2, 10]: 84.88 s; Mean number of coughs [2, 10]: 18.50; Cough latency ([2]; 60 mg/kg, after administration): 221.75 s; Mean number of coughs ([2]; 60 mg/kg, after administration): 10.25; Cough inhibition rate Vs baseline (%) ([2]; 60 mg/kg): 44.59%
			CCCn1ncc2c(S(N)(=O)=O)cc(NC(=O)Cc3ccccc3Cl)cc21 [Compound 5-B, 2-(2-chlorophenyl)-N-(1-propyl-4-sulfonylamino-1H-indazol-6-yl)acetamide]		2.2	> 200000	1.094		
			CC(C)Cn1ncc2c(S(N)(=O)=O)cc(NC(=O)Cc3ccccc3Cl)cc21 [Compound 7-B, 2-(2-chlorophenyl)-N-(1-isobutyl-4-sulfamoyl-2H-indazol-6-yl)acetamide]		2.33	150000	0.5413		
			CC(C)CCn1ncc2c(S(N)(=O)=O)cc(NC(=O)Cc3ccccc3Cl)cc21 [Compound 8-B, 2-(2-chlorophenyl)-N-(1-isopentyl-4-sulfamoyl-2H-indazol-6-yl)acetamide]		0.38	> 200000	0.4488		
0.809	1.84	3.23	N#Cc1ccc(Cn2cc3c(S(N)(=O)=O)cc(NC(=O)Cc4ccccc4Cl)cc3n2)cc1 [Compound 91, 2-(2-chlorophenyl)-N-(2-(4-cyanobenzyl)-4-sulfamoyl-2H-indazol-6-yl)acetamide]	> 200000				≤ 10	
			COc1ccc(CN(Cc2ccc(OC)cc2)S(=O)(=O)c2cc(NC(=O)Cc3ccccc3Cl)cc3c2cnn3Cc2ccc(C#N)cc2)cc1 [Compound 91A, N-(4-(N,N-bis(4-methoxybenzyl)sulfamoyl)-1-(4-cyanobenzyl)-1H-indazol-6-yl)-2-(2-chlorophenyl)acetamide]				1.6827	≤ 10	T1/2 in guinea pig liver microsome min [1]: 1.424 h; T1/2 in rat liver microsome min [3]: 2.0857 h; CC50 [8]: > 200000 nM
